# Test results published in US20070197517A1, “Combination therapy for hyperproliferative disease” (Pfizer Inc., priority 2002, published 2007).
# Counter-ions that a name gives are not always drawn.
# What was measured:
# [1] = tested on: Human Pancreatic Carcinoma Capan-1; assay: Anti-tumor efficacy of gemcitabine hydrochloride and Compound X, s.c. Capan-1 xenograft; type: in vivo, Nu/Nu mice; conditions: for % Tumor Growth Inhibition: vs Gelucire vehicle day 13
# Experimental: (10^7 cells/mouse, 200 μl) into the right flank of female Nu/Nu mice (˜20 grams; […] An overview of each of the groups and the treatment is set forth below in the table. [table] Animal body weight and tumor measurements were obtained at regular intervals. […] Mean tumor volume in Gelucire vehicle group on day 13 was used for % growth inhibition calculation.
# [2] = tested on: Human Non Small Cell Lung Carcinoma EBC-1; assay: Anti-tumor efficacy of paclitaxel (Taxol) with Compound X, s.c. EBC-1 xenograft; type: in vivo, Nu/Nu mice; conditions: vs Gelucire vehicle day 15
# Experimental: (§1) Exponentially grown human non-small cell lung carcinoma EBC-1 cells [(RPMI 1640 with 10% FBS, and pen/strep (Gibco)] were harvested and inoculated s.c. (10^7 cells/mouse, 200 μl) into the right flank of female Nu/Nu mice (˜20 grams; Charles River Laboratories, MA.). 7 days after inoculation, tumor-bearing animals of approximately 150 mm^3 in size were separated into groups of 5 animals each.
# Compound X (the mesylate salt of 3-(4-Bromo-2,6-difluoro-benzyloxy)-5-[3-(4-pyrrolidin-1-yl-butyl)-ureido}-isothiazole-4-carboxylic acid amide) was formulated in 5% Gelucire (Gattefosse Inc. France) and dosed po., qd×15 at 12.5 and 100 mg/kg. Taxol® (MeadJohnson Oncology Products, Princeton, N.J.) was formulated in 0.9% sterile saline and dosed ip., qd×5 at 20 mg/kg. For control purposes one group received 5% Gelucire only (200 μl/animal, po, qd×15).
# (§2) Animal body weight and tumor measurements were obtained at regular intervals. Tumor volume (mm^3) was calculated using the formula length (mm)×width (mm)×width (mm)×0.5.
# Mean tumor volume in Gelucire vehicle group on day 15 was used for the % growth inhibition calculation.
# [3] = tested on: Human Non Small Cell Lung Carcinoma EBC-1; assay: Anti-tumor efficacy of carboplatin with Compound X, s.c. EBC-1 xenograft; type: in vivo; conditions: vs saline vehicle day 14
# Experimental: as §1, with “[RPMI” for “[(RPMI”, “subcutaneously” for “s.c.”, “MA).” for “MA.).”, “175” for “150”, “8” for “5”
# Carboplatin (Bristol Oncology Products, Princeton, N.J.) was formulated in 0.9% saline and dosed ip., q3d×4 at 25 and 50 mg/kg. One group received 0.9% saline only (200 μl/animal, ip, q3d×4) which served as the control for the experiment. […] One group received 5% Gelucire only, (200 μl/animal, po, qd×14) which served as the vehicle control for the experiment.
# as §2
# Mean tumor volume in saline vehicle group on day 14 was used for the % growth inhibition calculation.
# [4] = tested on: Human Colon Carcinoma Colo-205; assay: Anti-tumor efficacy of 5-FU with Compound X, s.c. Colo-205 xenograft; type: in vivo; conditions: vs Gelucire vehicle day 12
# Experimental: (§3) Exponentially grown human colon carcinoma Colo-205 cells [RPMI 1640 with 10% FBS, and pen/strep (Gibco)] were harvested and inoculated subcutaneously (5×10^6 cells/mouse, 200 μl) into the right flank of female Nu/Nu mice (˜20 grams; Charles River Laboratories, MA). 9 days after inoculation, tumor-bearing animals of approximately 150 mm^3 in size were separated into groups of 7 animals each.
# (§4) 5-FU (ICN Pharmaceuticals, Inc., Costa Mesa, Calif.) was formulated in 0.9% saline and dosed iv×1 at 25 and 100 mg/kg. One group received 0.9% saline only (200 μl/animal, iv×1) which served as the control for the experiment. The mesylate salt of 3-(4-Bromo-2,6-difluoro-benzyloxy)-5-[3-(4-pyrrolidin-1-yl-butyl)-ureido}-isothiazole-4-carboxylic acid amide was formulated in 5% Gelucire (Gattefosse Inc., France) and dosed po, qd×12 at 25, 50 and 100 mg/kg. One group received 5% Gelucire only, (200 μl/animal, po, qd×12) which served as the vehicle control for the experiment.
# as §2
# (§5) Mean tumor volume in Gelucire vehicle group on day 12 was used for the % growth inhibition calculation.
# [5] = tested on: Human Colon Carcinoma Colo-205; assay: Anti-tumor efficacy of CPT-11 with Compound X, s.c. Colo-205 xenograft; type: in vivo, Nu/Nu mice; conditions: vs Gelucire vehicle day 12
# Experimental: as §3
# as §4, with “CPT-11 (Camptosar®, Pharmacia & Upjohn, Kalamazoo, Mich.) was formulated” for “5-FU (ICN Pharmaceuticals, Inc., Costa Mesa, Calif.) was formulated”, “25 and 75 mg/kg. One” for “25 and 100 mg/kg. One”
# as §2, §5
# [6] = tested on: Human Breast Carcinoma MDA-MB-231; assay: Anti-tumor efficacy of doxorubicin with Compound X, s.c. MDA-MB-231 xenograft; type: in vivo, Nu/Nu mice; conditions: vs Gelucire vehicle day 24
# Experimental: Exponentially grown human breast carcinoma MDA-MB-231 cells [DMEM with 10% FBS, and pen/strep (Gibco)] were harvested and inoculated subcutaneously (3-5×10^6 cells/mouse, 200 μl) into the right flank of female Nu/Nu mice (˜20 grams; Charles River Laboratories, MA). 36 days after inoculation, tumor-bearing animals of approximately 75 mm^3 in size were separated into control (n=19) or experimental groups of animals (n=7 each).
# […] The mesylate salt of 3-(4-Bromo-2,6-difluoro-benzyloxy)-5-[3-(4-pyrrolidin-1-yl-butyl)-ureido}-isothiazole-4-carboxylic acid amide was formulated in 5% Gelucire (Gattefosse Inc., France) and dosed po, qd×24 at 12.5, 25, 50 and 100 mg/kg. One group received 5% Gelucire only, (200 μl/animal, po, qd×24) which served as the vehicle control for the experiment.
# as §2
# Mean tumor volume in Gelucire vehicle group on day 24 was used for the % growth inhibition calculation.
# [7] = Compound X 25 mg/kg, po, qd × 12
# [8] = Compound X 50 mg/kg, po, qd × 12
# [9] = Compound X 100 mg/kg, po, qd × 12
smiles,measurement,setting,value
"NC(=O)c1c(OCc2c(F)cc(Br)cc2F)nsc1NC(=O)NCCCCN1CCCC1 [Compound X, 3-(4-Bromo-2,6-difluoro-benzyloxy)-5-[3-(4-pyrrolidin-1-yl-butyl)-ureido}-isothiazole-4-carboxylic acid amide]",% Tumor Growth Inhibition,"[1]; Group 2: Compound X 25 mg/kg, po, qd × 13",16%
same,% Tumor Growth Inhibition,"[1]; Group 3: Compound X 100 mg/kg, po, qd × 13",46%
same,% Tumor Growth Inhibition,"[2]; Compound X 12.5 mg/kg, po, qd × 15",34%
same,% Tumor Growth Inhibition,"[2]; Compound X 100 mg/kg, po, qd × 15",72%
same,% Tumor Growth Inhibition,"[3]; Compound X 100 mg/kg, po, qd × 4",67%
same,% Tumor Growth Inhibition,[4]; [7],21%
same,% Tumor Growth Inhibition,[4]; [8],47%
same,% Tumor Growth Inhibition,[4]; [9],64%
same,% Tumor Growth Inhibition,[5]; [7],9%
same,% Tumor Growth Inhibition,[5]; [8],28%
same,% Tumor Growth Inhibition,[5]; [9],66%
same,% tumor growth,"[6]; Compound X 12.5 mg/kg, po, qd × 24, growth instead of inhibition",(10% tumor growth)
same,% Tumor Growth Inhibition,"[6]; Compound X 25 mg/kg, po, qd × 24",24%
same,% Tumor Growth Inhibition,"[6]; Compound X 50 mg/kg, po, qd × 24",46%
same,% Tumor Growth Inhibition,"[6]; Compound X 100 mg/kg, po, qd × 24",49%
"CCc1c2c(nc3ccc(OC(=O)N4CCC(N5CCCCC5)CC4)cc13)-c1cc3c(c(=O)n1C2)COC(=O)[C@]3(O)CC [CPT-11, irinotecan HCl, reference compound]",% tumor growth,"[5]; CPT-11 25 mg/kg, iv × 1, growth instead of inhibition",(7% Tumor Growth)
same,% Tumor Growth Inhibition,"[5]; CPT-11 75 mg/kg, iv × 1",5%
"N.N.O=C([O-])C1(C(=O)[O-])CCC1.[Pt+2] [Carboplatin, cis-diammine-1,1-cyclobutanedicarboxylato-platinum II]",% Tumor Growth Inhibition,"[3]; Carboplatin 25 mg/kg, ip, q3d × 4",0%
same,% Tumor Growth Inhibition,"[3]; Carboplatin 50 mg/kg, ip, q3d × 4",31%
"O=c1[nH]cc(F)c(=O)[nH]1 [Compound 5-FU, 5-fluorouracil, reference compound]",% Tumor Growth Inhibition,"[4]; 5-FU 25 mg/kg, iv × 1",24%
same,% Tumor Growth Inhibition,"[4]; 5-FU 100 mg/kg, iv × 1",59%
"CC(=O)O[C@H]1C(=O)[C@@]2(C)[C@H]([C@H](OC(=O)c3ccccc3)[C@]3(O)C[C@H](OC(=O)[C@H](O)[C@@H](NC(=O)c4ccccc4)c4ccccc4)C(C)=C1C3(C)C)[C@]1(OC(C)=O)CO[C@@H]1C[C@@H]2O [Taxol ®, Paclitaxel, reference compound]",% Tumor Growth Inhibition,"[2]; Taxol 20 mg/kg, ip, qd × 5",75%
"Nc1ccn([C@@H]2O[C@H](CO)[C@@H](O)C2(F)F)c(=O)n1 [Gemcitabine HCl, Gemcitabine hydrochloride]",% Tumor Growth Inhibition,"[1]; Group 4: Gemcitabine HCl 1 mg/kg, ip, q3d × 4",0%
same,% Tumor Growth Inhibition,"[1]; Group 5: Gemcitabine HCl 5 mg/kg, ip, q3d × 4",26%
same,mean tumor regression,"[1]; Group 6: Gemcitabine HCl 80 mg/kg, ip, q3d × 4, day 1 volume of group = 100%",66% regression*
same,% Tumor Growth Inhibition,"[1]; Group 6: Gemcitabine HCl 80 mg/kg, ip, q3d × 4",83%
"COc1cccc2c1C(=O)c1c(O)c3c(c(O)c1C2=O)C[C@@](O)(C(=O)CO)C[C@@H]3O[C@H]1C[C@H](N)[C@H](O)[C@H](C)O1 [Doxorubicin, reference compound]",% Tumor Growth Inhibition,"[6]; Doxorubicin 2.5 mg/kg, ip × 1",7%
same,% Tumor Growth Inhibition,"[6]; Doxorubicin 10 mg/kg, ip × 1",48%
